Where two headings read alike, the source gives them in different places.
Columns and labels:
E. coli O157:H7 = settings: beef tissue briefly dipped in a 1% acid solution at 55° C.; cited from earlier work
Listeria monocytogenes = settings: beef tissue briefly dipped in a 1% acid solution at 55° C.; cited from earlier work

| Structure (SMILES) | % HONO (pH 2.6) | % NO2^− (pH 2.6) | % HONO (pH 2.8) | % NO2^− (pH 2.8) | % HONO (pH 3.0) | % NO2^− (pH 3.0) | % HONO (pH 3.3) | % NO2^− (pH 3.3) | % HONO (pH 3.5) | % NO2^− (pH 3.5) | % HONO (pH 4.0) | % NO2^− (pH 4.0) | reduction of E. coli O157:H7 (E. coli O157:H7) | reduction of Listeria monocytogenes (Listeria monocytogenes) |
| --- | --- | --- | --- | --- | --- | --- | --- | --- | --- | --- | --- | --- | --- | --- |
| O=NO [Nitrite] | 83.3% | 16.7% | 76.0% | 24.0% | 66.7% | 33.3% | 50.0% | 50.0% | 38.8% | 61.2% | 16.6% | 63.4% |  |  |
| O=C(O)/C=C/C(=O)O [fumaric acid] |  |  |  |  |  |  |  |  |  |  |  |  | much more effective than lactic or acetic acids | much more effective than lactic or acetic acids |

Source: patent publication US20180055857A1, “TREATMENT OF ACNE VULGARIS WITH SEQUENTIAL TOPICAL FORMULATIONS COMPRISING ANTIMICROBIAL ORGANIC ACID ANIONS IN ALKALINE PHASE” (KANTIAN SCIENCES CORPORATION, priority 2015, published 2018)
